Laboratory results from US9328111B2, “Substituted cycloocta[5,6]pyrido[4,3,2-de]phthalazines as PARP inhibitors” (BeiGene Ltd., priority 2011, dated 2016).

biological target: Tankyrase-2 (Homo sapiens (Human), UniProt Q9H2K2); test: biochemical; settings: read-out: Tankyrase-2 Inhibition @ 50 nM
Sequence (Q9H2K2 whole entry): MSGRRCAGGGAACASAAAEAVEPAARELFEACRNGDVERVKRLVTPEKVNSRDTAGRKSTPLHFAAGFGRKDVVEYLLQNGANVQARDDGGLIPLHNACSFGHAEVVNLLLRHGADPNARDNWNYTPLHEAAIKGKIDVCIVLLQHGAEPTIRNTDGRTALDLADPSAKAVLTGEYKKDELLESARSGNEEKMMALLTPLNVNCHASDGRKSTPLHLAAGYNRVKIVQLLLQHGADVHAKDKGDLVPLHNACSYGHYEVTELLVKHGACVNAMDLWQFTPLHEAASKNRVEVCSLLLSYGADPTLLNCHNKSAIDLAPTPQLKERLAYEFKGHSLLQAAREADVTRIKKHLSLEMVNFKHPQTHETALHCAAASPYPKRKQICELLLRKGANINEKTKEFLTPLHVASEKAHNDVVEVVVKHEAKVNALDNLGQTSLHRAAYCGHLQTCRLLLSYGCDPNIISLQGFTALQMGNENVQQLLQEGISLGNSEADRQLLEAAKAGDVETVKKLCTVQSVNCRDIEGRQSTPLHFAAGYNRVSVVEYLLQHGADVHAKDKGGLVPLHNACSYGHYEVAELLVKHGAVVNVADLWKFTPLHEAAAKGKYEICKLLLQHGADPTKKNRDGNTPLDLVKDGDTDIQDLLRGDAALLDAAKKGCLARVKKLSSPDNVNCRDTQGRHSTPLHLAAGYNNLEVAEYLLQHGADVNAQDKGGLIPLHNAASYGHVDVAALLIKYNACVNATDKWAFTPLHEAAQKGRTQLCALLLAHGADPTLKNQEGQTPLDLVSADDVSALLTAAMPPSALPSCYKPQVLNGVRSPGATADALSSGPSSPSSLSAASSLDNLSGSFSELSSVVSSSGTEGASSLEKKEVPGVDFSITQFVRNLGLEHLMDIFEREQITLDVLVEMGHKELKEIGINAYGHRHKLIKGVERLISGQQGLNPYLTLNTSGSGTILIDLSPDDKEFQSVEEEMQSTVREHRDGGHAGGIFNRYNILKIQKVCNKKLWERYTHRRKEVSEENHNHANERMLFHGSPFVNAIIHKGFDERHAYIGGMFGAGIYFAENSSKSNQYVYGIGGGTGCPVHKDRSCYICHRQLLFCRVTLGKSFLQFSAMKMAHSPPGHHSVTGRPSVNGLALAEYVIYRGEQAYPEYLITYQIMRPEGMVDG

inhibition at 0.05 µM [%]	SMILES
14.1	O=c1[nH]nc2c3c(c(Cl)ccc13)NC1=C2CCCC1 [Example 9, 6-Chloro-8,9,10,11-tetrahydro-2H-pyridazino[5,4,3-kl]acridin-3(7H)-one]
14.3	O=c1[nH]nc2c3c(cccc13)NC1=C2c2ccccc2CC1 [Example 12, 8,9-Dihydro-2H-benzo[a]pyridazino[5,4,3-kl]acridin-3(7H)-one]
2.3	O=c1[nH]nc2c3c(c(Cl)ccc13)NC1=C2CCCCC1 [Example 8, 6-Chloro-7,8,9,10,11,12-hexahydrocyclohepta[5,6]pyrido[4,3,2-de]phthalazin-3(2H)-one]

tested on: PARP PARylation in HeLa cells; test: PARylation assay in HeLa cells after H2O2; type: cell-based; settings: Homo sapiens, 200 μM H2O2
Description: HeLa cells were seeded into a 96-well plate with clear bottom and black wall at an initial concentration of 5000 cells/well in culture medium (100 μL of DMEM containing 10% FBS, 0.1 mg/mL penicillin-streptomycin, and 2 mML-glutamine). The plates were incubated for 4 h at 37° C. under 5% CO2 atmosphere, and then compounds were added with serial dilutions over eight points over a 0.01 nM-10 μM final concentration range in 0.1% DMSO/culture medium. The plate was then incubated for 18 h at 37° C. in 5% CO2. Then DNA damage was provoked by addition of 60 μL of H2O2 solution in PBS (final concentration 200 μM). As a negative control, cells untreated with H2O2 were used. The plate was kept at 37° C. for 5 min. Then the medium was gently removed by plate inversion, and the cells were fixed by addition of ice-cold MeOH (100 μL/well) and kept at −20° C. for 20 min. After removal of the fixative by plate inversion and washing 10 times with PBS (120 μL), the detection buffer (50 μL/well, containing PBS, Tween (0.1%), and BSA (1 mg/mL)) together with the primary PAR mAb (Alexis ALX-804-220, 1:2000), the secondary anti-mouse Alexa Fluor 488 antibody (MolecularProbes A11029, 1:2000), and nuclear dye DAPI (Molecular Probes D3571, 150 nM) were added. Following overnight incubation at 4° C. in the dark, removal of the solution, and washing 6 times with PBS (120 μL), the plate was read on an ArrayScan VTI (ThermoFisher). Monitoring for PAR polymer was by detection of Alexa488 at XF100_485_20, exposure time of 0.05 s, and identification of the nuclei was by tracking DAPI with XF100_386_23, exposure time of 0.01 s. The mean value of total intensity of cells was calculated by measuring the average of total intensity of nuclei over the total number of DAPI-labeled nuclei. The EC50 was determined on the basis of the residual enzyme activity in the presence of increasing PARPi concentration.

SMILES	EC50 [nM]
CC1(C)C(C(=O)N2CCC3=C(C2)Nc2cccc4c(=O)[nH]nc3c24)C1(C)C [Example 17, 9-(2,2,3,3-Tetramethylcyclopropanecarbonyl)-8,9,10,11-tetrahydro-2H-phthalazino[8,1-bc][1,7]naphthyridin-3(7H)-one]	0.9
Cc1ccc2c(=O)[nH]nc3c2c1NC1=C3CCCC1 [Example 5, 6-Methyl-8,9,10,11-tetrahydro-2H-pyridazino[5,4,3-kl]acridin-3(7H)-one]	477
O=c1[nH]nc2c3c(cccc13)NC1=C2CCN(Cc2ccccc2)C1 [Example 18, 9-benzyl-8,9,10,11-tetrahydro-2H-phthalazino[8,1-bc][1,7]naphthyridin-3(7H)-one]	9.7
O=c1[nH]nc2c3c(cccc13)NC1=C2CCCCC1 [Example 4, 7,8,9,10,11,12-Hexahydrocyclohepta[5,6]pyrido[4,3,2-de]phthalazin-3(2H)-one]	0.75
CC1(C)CCC2=C(C1)c1n[nH]c(=O)c3cccc(c13)N2 [Example 1, 10,10-Dimethyl-8,9,10,11-tetrahydro-2H-pyridazino[5,4,3-kl]acridin-3(7H)-one]	0.8
O=c1[nH]nc2c3c(cccc13)NC1=C2CCCC1 [Example 2, 8,9,10,11-Tetrahydro-2H-pyridazino[5,4,3-kl]acridin-3 (7H)-one]	1.2
O=c1[nH]nc2c3c(cccc13)NC1=C2CCCCCC1 [Example 3, 8,9,10,11,12,13-Hexahydro-2H-cycloocta[5,6]pyrido[4,3,2-de]phthalazin-3(7H)-one]	0.6
O=c1[nH]nc2c3c(cccc13)NC1=C2CCNC1 [Example 14, 8,9,10,11-Tetrahydro-2H-phthalazino[8,1-bc][1,7]naphthyridin-3 (7H)-one]	14

Next, values leading:

EC50 [nM]	SMILES
43.2	O=c1[nH]nc2c3c(c(Cl)ccc13)NC1=C2CCCC1 [Example 9, 6-Chloro-8,9,10,11-tetrahydro-2H-pyridazino[5,4,3-kl]acridin-3(7H)-one]
32	O=c1[nH]nc2c3c(c(Br)ccc13)NC1=C2CCCC1 [Example 7, 6-Bromo-8,9,10,11-tetrahydro-2H-pyridazino[5,4,3-kl]acridin-3(7H)-one]
6.8	O=c1[nH]nc2c3c(cccc13)NC1=C2c2ccccc2CC1 [Example 12, 8,9-Dihydro-2H-benzo[a]pyridazino[5,4,3-kl]acridin-3(7H)-one]
139	O=c1[nH]nc2c3c(c(Br)ccc13)NC1=C2CCCCC1 [Example 6, 6-Bromo-7,8,9,10,11,12-hexahydrocyclohepta[5,6]pyrido[4,3,2-de]phthalazin-3(2H)-one]
4.6	O=c1[nH]nc2c3c(cccc13)NC1=C2CCC1 [Example 10, 7,8,9,10-Tetrahydrocyclopenta[5,6]pyrido[4,3,2-de]phthalazin-3(2H)-one]
269	CC(C)(NC(=O)OCc1ccccc1)C(=O)N1CCC2=C(C1)Nc1cccc3c(=O)[nH]nc2c13 [Example 15, Benzyl(2-methyl-1-oxo-1-(3-oxo-10,11-dihydro-2H-phthalazino[8,1-bc][1,7]naphthyridin-9(3H,7H,8H)-yl)propan-2-yl)carbamate]
5.4	CC1(C(=O)N2CCC3=C(C2)Nc2cccc4c(=O)[nH]nc3c24)CC1 [Example 16, 9-(1-Methylcyclopropanecarbonyl)-8,9,10,11-tetrahydro-2H-phthalazino[8,1-bc][1,7]naphthyridin-3(7H)-one]
43.2	O=c1[nH]nc2c3c(c(Cl)ccc13)NC1=C2CCCCC1 [Example 8, 6-Chloro-7,8,9,10,11,12-hexahydrocyclohepta[5,6]pyrido[4,3,2-de]phthalazin-3(2H)-one]
0.7	CC(C)(C)OC(=O)N1CCC2=C(C1)Nc1cccc3c(=O)[nH]nc2c13 [Example 13, Tert-butyl 3-oxo-7,8,10,11-tetrahydro-2H-phthalazino[8,1-bc][1,7]naphthyridine-9(3H)-carboxylate]
